From ChEMBL document CHEMBL3297728, “Synthesis and antituberculosis activity of novel 5-styryl-4-(hetero)aryl-pyrimidines via combination of the Pd-catalyzed Suzuki cross-coupling and S(N)(H) reactions” (Bioorg Med Chem Lett, 2014) come the findings set out here.

Series [1] concerns Mycobacterium tuberculosis. The series can be described thus: Antimycobacterial activity against Mycobacterium tuberculosis H37Rv after 10 days by microbroth dilution method. The class given is functional. As to conditions: 240 h. Background: Broth dilution looks for growth in wells or tubes with falling amounts of substance.
A short description of series [2]: Acute toxicity in mouse administered as single po dose. The class given is organism-based. The following applies: in vivo.
The subject of series [3] is Mycobacterium avium. The series is described as follows: Antimycobacterial activity against Mycobacterium avium after 10 days by microbroth dilution method. The class given is functional. As to conditions: 240 h.
Series [4] can be described thus: Acute toxicity in mouse administered as single ip dose. The class given is organism-based. The following applies: in vivo.
For series [5], the system named is Mycolicibacter terrae. The series is described as follows: Antimycobacterial activity against Mycobacterium terrae after 10 days by microbroth dilution method. The class given is functional. As to conditions: 240 h.

Converted amounts (≈) assume the structure as drawn.

For `c1csc(-c2ccncn2)c1`, the lowest concentration to inhibit growth in series [1] (MIC) was 12.5 µg/mL (≈ 77.1 µM). In series [1], `C(=C\c1cncnc1-c1ccc(-c2ccccc2)s1)/c1ccccc1` displayed an MIC of 12.5 µg/mL (≈ 36.7 µM).

`NNC(=O)c1ccncc1` [ISONIAZID]: the LD50 is 133 mg/kg in series [2] and 151 mg/kg in series [4]. Also, the MIC in series [3], in series [1] and in series [5] was 0.1 µg/mL (≈ 0.729 µM) each time. In turn, `c1ccc(-c2ccc(-c3ccncn3)s2)cc1` yielded an MIC in series [1] of 12.5 µg/mL (≈ 52.5 µM). For the compound `C(=C\c1cncnc1-c1ccc(-c2cccs2)s1)/c1ccccc1`, in series [5], the MIC was 0.7 µg/mL (≈ 2.02 µM). Take `C(=C\c1cncnc1-c1ccco1)/c1ccccc1`: in series [1], the lowest concentration to inhibit growth (MIC) was 6.25 µg/mL (≈ 25.2 µM). As for `C(=C\c1cncnc1-c1ccc(-c2cccs2)s1)/c1ccc(-c2ccccc2)cc1`, the median lethal dose (LD50) in series [2] is 78 mg/kg. Further, the figures for the MIC in series [3], in series [1] and in series [5] were 0.7 µg/mL (≈ 1.66 µM), 1.5 µg/mL (≈ 3.55 µM) and 0.7 µg/mL (≈ 1.66 µM), respectively.

As for `Brc1cncnc1-c1ccc(-c2ccccc2)s1`, the MIC in series [1] was found to be 6.25 µg/mL (≈ 19.7 µM). Take `c1csc(-c2ccc(-c3ccncn3)s2)c1`: the lowest concentration to inhibit growth in series [1] (MIC) was 12.5 µg/mL (≈ 51.2 µM). Against the preceding compound, the MIC is about 2-fold higher. For the compound `C(=C\c1cncnc1-c1ccc(-c2ccccc2)s1)/c1ccc(-c2ccccc2)cc1`, the MIC in series [1] came to 12.5 µg/mL (≈ 30 µM).

`NC(=O)c1cnccn1` [PYRAZINAMIDE]: the MIC in series [1] came out at 12.5 µg/mL (≈ 102 µM). Also, the LD50 in series [4] came to 1680 mg/kg. Regarding `Brc1cncnc1-c1cccs1`, in series [2], the LD50 came to 315 mg/kg. Further, the MIC worked out at 0.3 µg/mL (≈ 1.24 µM) in series [3], 0.7 µg/mL (≈ 2.9 µM) in series [1] and 0.3 µg/mL (≈ 1.24 µM) in series [5]. In series [1], `C(=C\c1cncnc1-c1ccco1)/c1ccc(-c2ccccc2)cc1` registered a minimal inhibitory concentration (MIC) of 12.5 µg/mL (≈ 38.5 µM). For `C(=C\c1cncnc1-c1cccs1)/c1ccccc1`, the MIC in series [1] worked out at 12.5 µg/mL (≈ 47.3 µM). Regarding `C(=C\c1cncnc1-c1cccs1)/c1ccc(-c2ccccc2)cc1`, in series [1], the MIC stood at 12.5 µg/mL (≈ 36.7 µM). For the compound `Brc1cncnc1-c1ccc(-c2cccs2)s1`, the MIC in series [5] was found to be 0.7 µg/mL (≈ 2.17 µM).

The compound `Brc1cncnc1-c1ccco1` came in with an LD50 in series [2] of 405 mg/kg. In addition, the MIC in series [3] was found to be 0.7 µg/mL (≈ 3.11 µM); in series [1] it was 1.5 µg/mL (≈ 6.67 µM); in series [5], 0.7 µg/mL (≈ 3.11 µM).

The term MIC denotes the smallest concentration in the dilution series that meets the test's criterion for growth inhibition. Read a high MIC as weaker potency. One may read the LD50 as the dose at which mortality reaches 50%. A high value points to lower toxicity.
